Results from US20100125081A1, “NEW COMPOUNDS 574” (ASTRAZENECA AB, priority 2008, published 2010).
Where a name gives a salt, the structure may show the parent alone.

target: T1, human β-Secretase (Homo sapiens, UniProt P56817); experiment: TR-FRET assay (β-secretase enzyme, sBACE-Fc); type: biochemical; conditions: soluble human β-secretase (AA 1-460) Fc fusion, substrate (Europium)CEVNLDAEFK(Qsy7) 100 nM, pH 4.5; unit inferred, nM taken
T1 construct: soluble part of the human β-Secretase (AA 1-AA 460); Fc domain of IgG1 (C); made in house
Protocol: The β-secretase enzyme used in the TR-FRET is prepared as follows:
The cDNA for the soluble part of the human β-Secretase (AA 1-AA 460) was cloned using the ASP2-Fc10-1-IRES-GFP-neoK mammalian expression vector. The gene was fused to the Fc domain of IgG1 (affinity tag) and stably cloned into HEK 293 cells.
The enzyme (truncated form) was diluted to 6 μg/mL (stock 1.3 mg/mL) and the substrate (Europium)CEVNLDAEFK(Qsy7) to 200 nM (stock 120 μM) in reaction buffer (NaAcetate, chaps, triton x-100, EDTA pH4.5). The robotic systems Biomek FX and Velocity 11 were used for all liquid handling and the enzyme and substrate solutions were kept on ice until they were placed in the robotic system. Enzyme (9 μl) was added to the plate then 1 μl of compound in dimethylsulphoxide was added, mixed and pre-incubated for 10 minutes. Substrate (10 μl) was then added, mixed and the reaction proceeded for 15 minutes at room temperature. The reaction was stopped with the addition of Stop solution (7 μl, NaAcetate, pH 9). The fluorescence of the product was measured on a Victor II plate reader with an excitation wavelength of 340 nm and an emission wavelength of 615 nm. The assay was performed in a Costar 384 well round bottom, low volume, non-binding surface plate (Corning #3676). The final concentration of the enzyme was 2.7 μg/ml; the final concentration of substrate was 100 nM (Km of ˜250 nM). The dimethylsulphoxide control, instead of test compound, defined the 100% activity level and 0% activity was defined by wells lacking enzyme (replaced with reaction buffer).

T1 sequence (P56817 22-460): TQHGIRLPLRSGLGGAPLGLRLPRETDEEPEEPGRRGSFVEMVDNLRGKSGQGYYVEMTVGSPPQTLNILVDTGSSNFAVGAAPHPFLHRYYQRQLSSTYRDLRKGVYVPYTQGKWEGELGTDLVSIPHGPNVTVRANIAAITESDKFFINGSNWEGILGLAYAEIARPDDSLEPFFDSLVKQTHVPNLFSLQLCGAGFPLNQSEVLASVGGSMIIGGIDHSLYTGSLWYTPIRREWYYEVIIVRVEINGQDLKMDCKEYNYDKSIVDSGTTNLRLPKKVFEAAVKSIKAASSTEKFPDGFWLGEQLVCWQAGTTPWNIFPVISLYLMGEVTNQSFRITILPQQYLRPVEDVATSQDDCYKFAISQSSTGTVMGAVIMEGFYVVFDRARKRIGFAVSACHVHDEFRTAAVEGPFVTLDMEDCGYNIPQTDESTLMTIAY

Row | Structure (SMILES) | IC50 [nM]
1 | NC1=NC(c2cccc(-c3cncnc3)c2)(c2ccnc(C(F)(F)F)c2)c2cccnc21 (single isomer, unassigned) [25, Isomer 1] | > 31600
2 | NC1=NC(c2cccc(-c3cccnc3)c2)(c2ccnc(C(F)(F)F)c2)c2cccnc21 (centres unmarked) [Example 3, 5-(3-(Pyridin-3-yl)phenyl)-5-(2-(trifluoromethyl)pyridin-4-yl)-5H-pyrrolo[3,4-b]pyridin-7-amine] | 560
3 | Cc1cc(C2(c3cccc(-c4cncnc4)c3)N=C(N)c3ncccc32)cc(C)n1 (centres unmarked) [Example 4, 5-(2,6-Dimethylpyridin-4-yl)-5-(3-(pyrimidin-5-yl)phenyl)-5H-pyrrolo[3,4-b]pyridin-7-amine] | 1800
4 | Cc1cc(C2(c3cccc(-c4cncc(C#N)c4)c3)N=C(N)c3ncccc32)cc(C)n1 (centres unmarked) [Example 5, 5-(3-(7-Amino-5-(2,6-dimethylpyridin-4-yl)-5H-pyrrolo[3,4-b]pyridin-5-yl)phenyl)nicotinonitrile] | 2400
5 | COc1ccc(C2(c3cccc(-c4cnccn4)c3)N=C(N)c3ncccc32)cc1Cl (centres unmarked) [Example 8, 5-(3-Chloro-4-methoxyphenyl)-5-(3-(pyrazin-2-yl)phenyl)-5H-pyrrolo[3,4-b]pyridin-7-amine] | 610
6 | Cc1cc(C2(c3cccc(-c4cncnc4)c3)N=C(N)c3ncc(Cl)cc32)ccn1 (centres unmarked) [Example 10, 3-Chloro-5-(2-methylpyridin-4-yl)-5-(3-(pyrimidin-5-yl)phenyl)-5H-pyrrolo[3,4-b]pyridin-7-amine] | 639
7 | COc1ccc(C2(c3cccc(-c4cncnc4)c3)N=C(N)c3ncc(C)cc32)cc1 (centres unmarked) [Example 11, 5-(4-Methoxyphenyl)-3-methyl-5-(3-(pyrimidin-5-yl)phenyl)-5H-pyrrolo[3,4-b]pyridin-7-amine] | 2120
8 | Cc1cc(C2(c3cccc(-c4cncnc4)c3)N=C(N)c3ncccc32)cc(C)c1F (centres unmarked) [Example 14, 5-(4-Fluoro-3,5-dimethylphenyl)-5-(3-(pyrimidin-5-yl)phenyl)-5H-pyrrolo[3,4-b]pyridin-7-amine] | 593
9 | NC1=NC(c2cccc(-c3cncnc3)c2)(c2ccnc(OCC(F)(F)F)c2)c2cccnc21 (centres unmarked) [Example 16, 5-(3-(Pyrimidin-5-yl)phenyl)-5-(2-(2,2,2-trifluoroethoxy)pyridin-4-yl)-5H-pyrrolo[3,4-b]pyridin-7-amine 0.2 acetic acid] | 1600
10 | NC1=NC(c2cccc(-c3cncnc3)c2)(c2ccnc(OC=C(F)F)c2)c2cccnc21 (centres unmarked) [Example 17, 5-(2-(2,2-Difluorovinyloxy)pyridin-4-yl)-5-(3-(pyrimidin-5-yl)phenyl)-5H-pyrrolo[3,4-b]pyridin-7-amine 0.2 acetic acid] | 1140
11 | Cc1cc(C2(c3cccc(-c4cncnc4)c3)N=C(N)c3ncccc32)cc(C(F)F)n1 (centres unmarked) [Example 20, 5-(2-(Difluoromethyl)-6-methylpyridin-4-yl)-5-(3-(pyrimidin-5-yl)phenyl)-5H-pyrrolo[3,4-b]pyridin-7-amine] | 445
12 | N#Cc1ccnc(-c2cccc(C3(c4ccnc(C(F)(F)F)c4)N=C(N)c4ncccc43)c2)c1 (centres unmarked) [Example 22, 2-(3-(7-Amino-5-(2-(trifluoromethyl)pyridin-4-yl)-5H-pyrrolo[3,4-b]pyridin-5-yl)phenyl)isonicotinonitrile] | 1800
13 | NC1=NC(c2cccc(-c3cncnc3)c2)(c2ccnc(OCCCF)c2)c2cccnc21 (centres unmarked) [Example 28, 5-(2-(3-Fluoropropoxy)pyridin-4-yl)-5-(3-(pyrimidin-5-yl)phenyl)-5H-pyrrolo[3,4-b]pyridin-7-amine] | 1560
14 | Cc1cc(C2(c3ccccc3)N=C(N)c3ncccc32)cc(C2CC2)c1OC(F)F (centres unmarked) [Example 31, 5-[3-Cyclopropyl-4-(difluoromethoxy)-5-methyl-phenyl]-5-phenyl-pyrrolo[3,4-b]pyridin-7-amine] | 815

Stronger by IC50, values ahead:

Row | IC50 [nM] | Structure (SMILES)
15 | 400 | NC1=NC(c2cccc(-c3cccc(Cl)c3)c2)(c2ccnc(C(F)(F)F)c2)c2cccnc21 (centres unmarked) [Example 1, 5-(3′-Chlorobiphenyl-3-yl)-5-(2-(trifluoromethyl)pyridin-4-yl)-5H-pyrrolo[3,4-b]pyridin-7-amine]
16 | 359 | COc1ccnc(-c2cccc(C3(c4ccnc(C(F)(F)F)c4)N=C(N)c4ncccc43)c2)c1 (centres unmarked) [Example 19, 5-(3-(4-methoxypyridin-2-yl)phenyl)-5-(2-(trifluoromethyl)pyridin-4-yl)-5H-pyrrolo[3,4-b]pyridin-7-amine]
17 | 350 | NC1=NC(c2cccc(-c3cncnc3)c2)(c2ccnc(C(F)(F)F)c2)c2cccnc21 (centres unmarked) [Example 2, 5-(3-(pyrimidin-5-yl)phenyl)-5-(2-(trifluoromethyl)pyridin-4-yl)-5H-pyrrolo[3,4-b]pyridin-7-amine]
18 | 288 | COc1ccc(C2(c3cccc(-c4cnccn4)c3)N=C(N)c3ncccc32)cc1C(F)F (centres unmarked) [Example 23, 5-(3-(difluoromethyl)-4-methoxyphenyl)-5-(3-(pyrazin-2-yl)phenyl)-5H-pyrrolo[3,4-b]pyridin-7-amine]
19 | 248 | COc1ccc(C2(c3cccc(-c4cncnc4)c3)N=C(N)c3ncccc32)cc1Cl (centres unmarked) [Example 7, 5-(3-Chloro-4-methoxyphenyl)-5-(3-(pyrimidin-5-yl)phenyl)-5H-pyrrolo[3,4-b]pyridin-7-amine]
20 | 239 | NC1=NC(c2cccc(-c3cncc(Cl)c3)c2)(c2ccnc(C(F)(F)F)c2)c2cccnc21 (centres unmarked) [Example 21, 5-(3-(5-Chloropyridin-3-yl)phenyl)-5-(2-(trifluoromethyl)pyridin-4-yl)-5H-pyrrolo[3,4-b]pyridin-7-amine]
21 | 212 | COc1ccc(C2(c3cccc(-c4cncnc4)c3)N=C(N)c3ncccc32)cc1C(F)F (centres unmarked) [Example 24, 5-(3-(Difluoromethyl)-4-methoxyphenyl)-5-(3-(pyrimidin-5-yl)phenyl)-5H-pyrrolo[3,4-b]pyridin-7-amine]
22 | 204 | NC1=NC(c2cccc(-c3cncnc3)c2)(c2ccc(OC(F)F)c(F)c2)c2cccnc21 (centres unmarked) [Example 18, 5-(4-(Difluoromethoxy)-3-fluorophenyl)-5-(3-(pyrimidin-5-yl)phenyl)-5H-pyrrolo[3,4-b]pyridin-7-amine]
23 | 176 | NC1=NC(c2cccc(-c3cncnc3)c2)(c2ccnc(C(F)(F)F)c2)c2cccnc21 (single isomer, unassigned) [25, Isomer 2]
24 | 156 | COc1c(F)cc(C2(c3ccc(F)c(-c4cncnc4)c3)N=C(N)c3ncccc32)cc1F (centres unmarked) [Example 6, 5-(3,5-Difluoro-4-methoxyphenyl)-5-(4-fluoro-3-(pyrimidin-5-yl)phenyl)-5H-pyrrolo[3,4-b]pyridin-7-amine]
25 | 119 | Cc1cc(C2(c3ccnc(-c4cncnc4)c3)N=C(N)c3ncccc32)cc(C2CC2)c1OC(F)F (centres unmarked) [Example 30, 5-(3-Cyclopropyl-4-difluoromethoxy-5-methyl-phenyl)-5-(2-pyrimidin-5-yl-pyridin-4-yl)-5H-pyrrolo[3,4-b]pyridin-7-ylamine]
26 | 106 | Cc1cc(C2(c3ccnc(-c4cncnc4)c3)N=C(N)c3ncccc32)cc(C)c1OC(F)F (centres unmarked) [Example 29, 5-(4-Difluoromethoxy-3,5-dimethyl-phenyl)-5-(2-pyrimidin-5-yl-pyridin-4-yl)-5H-pyrrolo[3,4-b]pyridin-7-ylamine]
27 | 96 | COc1c(C)cc(C2(c3cccc(-c4cnccn4)c3)N=C(N)c3ncccc32)cc1F (centres unmarked) [Example 15, 5-(3-Fluoro-4-methoxy-5-methylphenyl)-5-(3-(pyrazin-2-yl)phenyl)-5H-pyrrolo[3,4-b]pyridin-7-amine trifluoroacetic acid salt]
28 | 90 | Cc1cc(C2(c3cccc(-c4cnccn4)c3)N=C(N)c3ncccc32)cc(C)c1OCF (centres unmarked) [Example 27, 5-(4-(Fluoromethoxy)-3,5-dimethylphenyl)-5-(3-(pyrazin-2-yl)phenyl)-5H-pyrrolo[3,4-b]pyridin-7-amine]
29 | 47 | Cc1cc(C2(c3cccc(-c4cncnc4)c3)N=C(N)c3ncccc32)cc(C)c1OC(F)F (centres unmarked) [Example 12, 5-(4-(Difluoromethoxy)-3,5-dimethylphenyl)-5-(3-(pyrimidin-5-yl)phenyl)-5H-pyrrolo[3,4-b]pyridin-7-amine]
30 | 42 | Cc1cc(C2(c3cccc(-c4cncnc4)c3)N=C(N)c3ncccc32)cc(C)c1OCF (centres unmarked) [Example 26, 5-(4-(Fluoromethoxy)-3,5-dimethylphenyl)-5-(3-(pyrimidin-5-yl)phenyl)-5H-pyrrolo[3,4-b]pyridin-7-amine]
31 | 38 | Cc1cc(C2(c3cccc(-c4cnccn4)c3)N=C(N)c3ncccc32)cc(C)c1OC(F)F (centres unmarked) [Example 13, 5-(4-(Difluoromethoxy)-3,5-dimethylphenyl)-5-(3-(pyrazin-2-yl)phenyl)-5H-pyrrolo[3,4-b]pyridin-7-amine]
32 | 33 | NC1=NC(c2cccc(-c3cncnc3)c2)(c2ccc(OC(F)F)c(C3CC3)c2)c2cccnc21 (centres unmarked) [Example 9, 5-(3-Cyclopropyl-4-(difluoromethoxy)phenyl)-5-(3-(pyrimidin-5-yl)phenyl)-5H-pyrrolo[3,4-b]pyridin-7-amine acetic acid]
